According to article PMC7827014, “Synthetic Transition from Thiourea-Based Compounds to Tetrazole Derivatives: Structure and Biological Evaluation of Synthesized New N-(Furan-2-ylmethyl)-1H-tetrazol-5-amine Derivatives” (Molecules, 2021):
Values after ≈ are worked out from the molar mass of the structure shown. Where two headings read alike, the source gives them in different places.

Key:
[1] = test system: M. tuberculosis INH susceptible (Spec. 192); assay: In vitro antitubercular MIC; format: cell-based; conditions: Mycobacterium tuberculosis, read-out: Minimal inhibitory concentration
[2] = test system: M. tuberculosis H37Rv; assay: In vitro antitubercular MIC; format: cell-based; conditions: Mycobacterium tuberculosis, read-out: Minimal inhibitory concentration
[3] = test system: Caco-2; assay: MTT assay 72 h; format: cell-based; conditions: Homo sapiens
Protocol: (§1) The cell viability was assessed by using an enzymatic conversion of 3-(4,5-dimethylthiazol-2-yl)-2,5-diphenyltetrazolium bromide salt (MTT) to insoluble formazan crystals by mitochondrial dehydrogenases, occurring in living cells. Cells were cultured in 96-well plates at a density of l × 10^4 cells per well, and cultured to adhere for 24 h at 37 °C in a CO2 incubator. After 24 h of incubation, culture medium was replaced with a fresh medium, then cells were treated with various concentrations of the compounds and incubated for 72 h at 37 °C in a CO2 incubator. Untreated cells were used as the control. Subsequently, MTT solution (0,5 mg/mL in free-serum medium) was added, and samples were incubated for 4 h at 37 °C in a CO2 incubator. Then, the medium was aspirated, and formed formazan crystals were solubilized by adding an isopropanol-DMSO mixture (1:1 vol). The intensity of the dissolved crystals was measured using a UVM 340 reader (ASYS Hitech GmbH, Austria), at a wavelength of 570 nm. Cell viability was presented as a percent of MTT reduced in treated cells versus control cells (incubated without tested compounds). The relative MTT level (%) was calculated as [A]/[B]×100, where [A] is the absorbance of the test sample, and [B] is the absorbance of the control sample containing the untreated cells. The IC50 value was estimated using CalcuSyn version 1.0. […]
(§2) Antiproliferative activity of tested compounds. Data are given as IC50 [µM] and SI.
(§3) Human immortal keratinocyte cell line from adult human skin (HaCaT), Human colorectal adenocarcinoma (CaCo-2), Human epithelial lung carcinoma cell line (A549) and Human melanoma cell line (HTB-140). Data are expressed as mean ± SD. The SI (Selectivity Index) was calculated for each compound using formula: SI = IC50 for normal cel line / IC50 cancer cel line.

[4] = test system: A549; assay: MTT assay 72 h; format: cell-based, human
Protocol: as §1, §2, §3

[5] = test system: HaCaT; assay: MTT assay 72 h; format: cell-based, human
Protocol: as §1, §2, §3

[6] = test system: HTB-140; assay: MTT assay 72 h; format: cell-based, human; conditions: HTB-140, MTT 72 h, mean ± SD
Protocol: as §1, §2, §3

[7] = test system: E. coli NCTC 8196; assay: MIC microdilution, standard strain; format: cell-based; conditions: E. coli NCTC 8196, 18 h, 35 °C
[8] = test system: S. aureus ATCC 29213; assay: MIC microdilution, standard strain; format: cell-based; conditions: Staphylococcus aureus
[9] = test system: S. epidermidis ATCC 12228; assay: MIC microdilution, standard strain; format: cell-based
[10] = test system: S. aureus NCTC 4163; assay: MIC microdilution, standard strain; format: cell-based; conditions: Staphylococcus aureus
[11] = test system: E. coli ATCC 25922; assay: MIC microdilution, standard strain; format: cell-based; conditions: E. coli ATCC 25922, 18 h, 35 °C
[12] = test system: P. aeruginosa ATCC 15442; assay: MIC microdilution, standard strain; format: cell-based; conditions: Pseudomonas aeruginosa, ATCC15442, 18 h
[13] = test system: E. hirae ATCC 10541; assay: MIC microdilution, standard strain; format: cell-based
[14] = test system: E. hirae ATCC 10541; design: method as in PMID 30031974; conditions: previous project ref 20; cited from earlier work
[15] = test system: hospital staphylococcal isolates; design: method as in PMID 30031974; conditions: clinical cocci; cited from earlier work
[16] = test system: S. aureus NCTC 4163; design: method as in PMID 30031974; conditions: previous project ref 20; cited from earlier work
[17] = test system: P. aeruginosa ATCC 15442; design: method as in PMID 30031974; conditions: previous project ref 20; cited from earlier work
[18] = test system: standard bacterial strains; design: method as in PMID 30031974; conditions: various standard bacterial strains; cited from earlier work
[19] = test system: P. aeruginosa ATCC 27853; design: method as in PMID 30031974; conditions: previous project ref 20; cited from earlier work
[20] = test system: S. epidermidis ATCC 12228; design: method as in PMID 30031974; conditions: previous project ref 20; cited from earlier work
[21] = Caco-2, MTT 72 h, mean ± SD, read-out: IC50
[22] = Homo sapiens, A549, MTT 72 h, mean ± SD, read-out: IC50
[23] = Homo sapiens, HaCaT normal cells, MTT 72 h, mean ± SD, read-out: IC50
[24] = Escherichia coli, NCTC8196, read-out: MIC
[25] = ATCC29213, S. aureus ATCC 29213, 18 h, 35 °C, read-out: MIC
[26] = Staphylococcus epidermidis, ATCC12228, S. epidermidis ATCC 12228, 18 h, 35 °C, read-out: MIC
[27] = NCTC4163, S. aureus NCTC 4163, 18 h, 35 °C, read-out: MIC
[28] = Escherichia coli, ATCC25922, read-out: MIC
[29] = Enterococcus hirae, ATCC10541, E. hirae ATCC 10541, 18 h, 35 °C, read-out: MIC

SMILES	MIC [1] [µg/mL]	MIC [2] [µg/mL]	IC50 [3, 21] [µM]	IC50 [4, 22] [µM]	IC50 [5, 23] [µM]	IC50 ([6]; Homo sapiens) [µM]	further results
Brc1ccc(-n2nnnc2NCc2ccco2)cc1 [Compound 10, 1-(4-bromophenyl)-N-(furan-2-ylmethyl)-1H-tetrazol-5-amine]	> 512	> 512	> 100	> 100	> 100	> 100	
Ic1ccc(-n2nnnc2NCc2ccco2)cc1 [Compound 3, N-(furan-2-ylmethyl)-1-(4-iodophenyl)-1H-tetrazol-5-amine]	> 512	> 512	> 100	> 100	> 100	> 100	MIC [7, 24]: 128 µg/mL (≈ 349 µM); MIC [8, 25]: 64 µg/mL (≈ 174 µM); MIC [9, 26]: 128 µg/mL (≈ 349 µM); MIC [10, 27]: 64 µg/mL (≈ 174 µM); MIC [11, 28]: 128 µg/mL (≈ 349 µM); MIC [12]: 512 µg/mL (≈ 1390 µM); MIC [13, 29]: 128 µg/mL (≈ 349 µM)
Fc1cccc(-n2nnnc2NCc2ccco2)c1 [Compound 9, 1-(3-fluorophenyl)-N-(furan-2-ylmethyl)-1H-tetrazol-5-amine]	256 (≈ 987 µM)	256 (≈ 987 µM)	> 100	> 100	> 100	> 100	
Cc1ccc(Cl)cc1-n1nnnc1NCc1ccco1 [Compound 2, 1-(5-chloro-2-methylphenyl)-N-(furan-2-ylmethyl)-1H-tetrazol-5-amine]	> 512	> 512	> 100	> 100	> 100	> 100	MIC [7, 24]: 128 µg/mL (≈ 442 µM); MIC [8, 25]: 64 µg/mL (≈ 221 µM); MIC [9, 26]: 256 µg/mL (≈ 884 µM); MIC [10, 27]: 64 µg/mL (≈ 221 µM); MIC [11, 28]: 128 µg/mL (≈ 442 µM); MIC [13, 29]: 64 µg/mL (≈ 221 µM)
Fc1ccc(-n2nnnc2NCc2ccco2)cc1 [Compound 1, 1-(4-fluorophenyl)-N-(furan-2-ylmethyl)-1H-tetrazol-5-amine]	256 (≈ 987 µM)	256 (≈ 987 µM)	> 100	> 100	> 100	> 100	MIC [7, 24]: 128 µg/mL (≈ 494 µM); MIC [8, 25]: 64 µg/mL (≈ 247 µM); MIC ([9]; Staphylococcus epidermidis, ATCC12228, 18 h): 256 µg/mL (≈ 987 µM); MIC [10, 27]: 64 µg/mL (≈ 247 µM); MIC [11, 28]: 128 µg/mL (≈ 494 µM)
N.N.[Cl][Pt][Cl] [cisplatin, reference compound]							IC50 ([4]; A549, MTT 72 h, mean ± SD, read-out: IC50): 1.95 µM; IC50 ([5]; HaCaT normal cells, MTT 72 h, mean ± SD, read-out: IC50): 2.84 µM; IC50 [6]: 1.13 µM
O=C(O)c1cn(C2CC2)c2cc(N3CCNCC3)c(F)cc2c1=O [Ciprofloxacin, reference compound]							MIC ([13]; Enterococcus hirae, ATCC10541, 18 h): 2 µg/mL (≈ 6.04 µM)
Fc1ccc(-n2nnnc2NCc2ccco2)cc1Cl [Ref 2, 1-(3-chloro-4-fluorophenyl)-N-(furan-2-ylmethyl)-1H-tetrazol-5-amine]							MIC [14]: 4 µg/mL (≈ 13.6 µM); MICs (range) [15]: 2 to 16 µg/mL; MIC [16]: 2 µg/mL (≈ 6.81 µM); MIC [17]: 64 µg/mL (≈ 218 µM); MIC (range) [18]: 0.25 to 4 µg/mL; MIC [19]: 2 µg/mL (≈ 6.81 µM); MIC [20]: 2 µg/mL (≈ 6.81 µM)
Brc1ccccc1-n1nnnc1NCc1ccco1 [Compound 12, 1-(2-bromophenyl)-N-(furan-2-ylmethyl)-1H-tetrazol-5-amine]	512 (≈ 1600 µM)	512 (≈ 1600 µM)	> 100	> 100	> 100	> 100	
Clc1cccc(-n2nnnc2NCc2ccco2)c1 [Compound 4, 1-(3-chlorophenyl)-N-(furan-2-ylmethyl)-1H-tetrazol-5-amine]	512 (≈ 1860 µM)	> 512	> 100	> 100	> 100	> 100	MIC [7, 24]: 512 µg/mL (≈ 1860 µM); MIC ([8]; ATCC29213, 18 h): 256 µg/mL (≈ 929 µM); MIC [9, 26]: 512 µg/mL (≈ 1860 µM); MIC ([10]; NCTC4163, 18 h): 256 µg/mL (≈ 929 µM); MIC [11]: >; MIC [13, 29]: 512 µg/mL (≈ 1860 µM)
Clc1ccccc1-n1nnnc1NCc1ccco1 [Compound 11, 1-(2-chlorophenyl)-N-(furan-2-ylmethyl)-1H-tetrazol-5-amine]	256 (≈ 929 µM)	512 (≈ 1860 µM)	> 100	> 100	> 100	> 100	
COc1cccc2c1C(=O)c1c(O)c3c(c(O)c1C2=O)C[C@@](O)(C(=O)CO)C[C@@H]3O[C@H]1C[C@H](N)[C@H](O)[C@H](C)O1 [doxorubicin, reference compound]							IC50 ([3]; Caco-2, 72 h): 0.53 µM; IC50 ([4]; Homo sapiens, A549, 72 h): 0.63 µM; IC50 ([5]; Homo sapiens, HaCaT, 72 h): 1.09 µM
Clc1ccc(-n2nnnc2NCc2ccco2)cc1 [Compound 8, 1-(4-chlorophenyl)-N-(furan-2-ylmethyl)-1H-tetrazol-5-amine]	512 (≈ 1860 µM)	256 (≈ 929 µM)	> 100	> 100	> 100	> 100	MIC [7]: >; MIC [8, 25]: 128 µg/mL (≈ 464 µM); MIC ([9]; S. epidermidis ATCC 12228, 18 h, 35 °C): >; MIC [10, 27]: 128 µg/mL (≈ 464 µM); MIC [11]: >; MIC ([13]; E. hirae ATCC 10541, 18 h, 35 °C): >
Clc1ccc(-n2nnnc2NCc2ccco2)cc1Cl [Compound 5, 1-(3,4-dichlorophenyl)-N-(furan-2-ylmethyl)-1H-tetrazol-5-amine]	> 512	> 512	> 100	> 100	> 100	> 100	
Cc1ccc(-n2nnnc2NCc2ccco2)cc1Cl [Ref 1, 1-(3-chloro-4-methylphenyl)-N-(furan-2-ylmethyl)-1H-tetrazol-5-amine]							MIC [14]: 8 µg/mL (≈ 27.6 µM); MIC [16]: 4 µg/mL (≈ 13.8 µM); MIC [17]: 32 µg/mL (≈ 110 µM); MIC [19]: 4 µg/mL (≈ 13.8 µM); MIC [20]: 2 µg/mL (≈ 6.9 µM)
NNC(=O)c1ccncc1 [INH, isoniazid, reference compound]	≤ 0.0625	≤ 0.0625					
Brc1cccc(-n2nnnc2NCc2ccco2)c1 [Compound 7, 1-(3-bromophenyl)-N-(furan-2-ylmethyl)-1H-tetrazol-5-amine]	512 (≈ 1600 µM)	512 (≈ 1600 µM)	> 100	> 100	> 100	> 100	
